Laboratory results as given in PMC9603770, “Broad-Spectrum Inhibitors against Class A, B, and C Type β-Lactamases to Block the Hydrolysis against Antibiotics: Kinetics and Structural Characterization” (Microbiology Spectrum, 2022).

Key:
Type in all cases: biochemical
[1] = target: T1, Amp-C (Escherichia coli, UniProt P00811); experiment: IC50, nitrocefin hydrolysis
T1 construct: made in house; host or cells: E. coli (DH5 and BL21(DE3) named; pET-28a)
Protocol: (§1) The IC50 values of all the proteins were calculated to determine the efficacy of each inhibitor. The IC50 values were calculated for the proteins NDM-1, Amp-C, KPC-2, CTX-M-15, SHV-1, and TEM-1 with each of its inhibitors (D63, D2148, and D2573) to compare their efficacies at a fixed concentration 100 μΜ of nitrocefin (Table 7).
(§2) Overexpression of proteins was done by adding 0.5 mM IPTG (isopropyl-β-D-thiogalactopyranoside), and purification of the NDM-1, SHV-1, TEM-1, CTX-M-15, KPC-2, and Amp-C recombinant protein was performed with an Ni-NTA affinity column. […] The final concentration of the protein was estimated with a NanoDrop instrument.
(§3) The direct competition between the β-lactamase substrate, nitrocefin, and their inhibitors were used to determine the IC50 and Ki values. Using a Shimadzu UV-VIS spectrophotometer UV-1800, variable quantities of inhibitor D63, D2148, and D2573 (0 to 3 μM), fixed concentrations of purified proteins (1 nM), and nitrocefin substrate (100 μM) were used in a reaction at 486 nm. […] The IC50 value is the inhibitor concentration that inhibits enzyme hydrolytic activity by 50% (50% inhibitory concentration).

[2] = target: T2, SHV-1 (Klebsiella pneumoniae, UniProt P0AD64); experiment: IC50, nitrocefin hydrolysis
T2 construct: made in house; host or cells: E. coli (DH5 and BL21(DE3) named; pET-28a)
T2 sequence (P0AD64 22-286): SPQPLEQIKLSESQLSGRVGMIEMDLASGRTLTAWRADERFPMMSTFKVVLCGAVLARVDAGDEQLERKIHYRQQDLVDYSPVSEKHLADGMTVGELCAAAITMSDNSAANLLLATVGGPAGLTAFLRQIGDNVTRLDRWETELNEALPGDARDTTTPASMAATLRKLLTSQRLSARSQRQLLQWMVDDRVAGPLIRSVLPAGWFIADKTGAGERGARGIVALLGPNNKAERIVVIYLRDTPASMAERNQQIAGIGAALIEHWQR
Protocol: as §1, §2, §3

[3] = target: T3, KPC-2 (Klebsiella pneumoniae, UniProt Q9F663); experiment: IC50, nitrocefin hydrolysis; settings: 100 μΜ nitrocefin
T3 construct: made in house; host or cells: E. coli (DH5 and BL21(DE3) named; pET-28a)
T3 sequence (Q9F663 25-293, looked up, species assumed): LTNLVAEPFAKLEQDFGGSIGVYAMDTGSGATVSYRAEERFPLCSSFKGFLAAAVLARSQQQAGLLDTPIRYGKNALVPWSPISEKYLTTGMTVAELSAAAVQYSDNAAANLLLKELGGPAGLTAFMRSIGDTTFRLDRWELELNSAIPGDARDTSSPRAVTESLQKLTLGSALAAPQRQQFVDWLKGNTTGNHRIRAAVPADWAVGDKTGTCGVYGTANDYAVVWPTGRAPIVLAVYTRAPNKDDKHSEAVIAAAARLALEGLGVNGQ
Protocol: as §1, §2, §3

[4] = target: T4, CTX-M-15 (Escherichia coli, UniProt Q9EXV5); experiment: IC50, nitrocefin hydrolysis; settings: 100 μΜ nitrocefin
T4 construct: made in house; host or cells: E. coli (DH5 and BL21(DE3) named)
T4 sequence (Q9EXV5 29-291, species assumed): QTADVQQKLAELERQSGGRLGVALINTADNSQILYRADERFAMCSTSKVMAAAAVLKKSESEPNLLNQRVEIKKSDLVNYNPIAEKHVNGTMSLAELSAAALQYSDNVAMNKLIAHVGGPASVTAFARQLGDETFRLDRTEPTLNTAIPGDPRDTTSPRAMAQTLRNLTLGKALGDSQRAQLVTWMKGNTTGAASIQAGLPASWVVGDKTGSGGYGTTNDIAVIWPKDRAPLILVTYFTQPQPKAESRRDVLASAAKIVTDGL
Protocol: as §1, §2, §3

[5] = target: T5, TEM-1 (Escherichia coli, UniProt P62593); experiment: IC50, nitrocefin hydrolysis; settings: 100 μΜ nitrocefin
T5 construct: made in house; host or cells: E. coli (DH5 and BL21(DE3) named; pET-28a)
T5 sequence (P62593 24-286 limits assumed): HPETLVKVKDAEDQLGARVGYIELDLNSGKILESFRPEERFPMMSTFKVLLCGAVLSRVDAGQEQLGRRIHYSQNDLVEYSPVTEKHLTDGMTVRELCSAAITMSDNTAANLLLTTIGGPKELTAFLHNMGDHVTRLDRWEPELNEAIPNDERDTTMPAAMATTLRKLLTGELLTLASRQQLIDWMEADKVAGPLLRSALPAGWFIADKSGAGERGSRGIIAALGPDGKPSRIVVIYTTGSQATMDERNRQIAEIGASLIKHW
Protocol: as §1, §2, §3

[6] = target: T6, NDM-1 (Klebsiella pneumoniae, UniProt C7C422); experiment: IC50, nitrocefin hydrolysis; settings: 100 μΜ nitrocefin
T6 construct: made in house; host or cells: E. coli (DH5 and BL21(DE3) named)
T6 sequence (C7C422 29-270, looked up, species assumed): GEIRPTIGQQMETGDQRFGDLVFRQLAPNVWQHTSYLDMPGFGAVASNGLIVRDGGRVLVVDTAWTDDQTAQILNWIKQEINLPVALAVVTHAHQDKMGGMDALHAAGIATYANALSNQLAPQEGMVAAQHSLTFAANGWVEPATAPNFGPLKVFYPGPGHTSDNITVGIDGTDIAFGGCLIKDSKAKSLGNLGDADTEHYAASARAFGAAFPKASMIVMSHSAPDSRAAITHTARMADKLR
Protocol: as §1, §2, §3

[7] = target: T1, Amp-C; experiment: Steady-state kinetics of antibiotic hydrolysis with inhibitor; settings: inhibitor concentration as per IC50
Protocol: (§4) The enzyme kinetics parameters (Km, and kcat) for all six proteins/enzymes in combination with different antibiotics (cefotaxime, imipenem, and meropenem), were calculated. The concentration of inhibitors, D63, D2148, and D2573, was as per the IC50 value (Fig. 5); the kinetic parameters are listed in Table 8.
(§5) The steady-state kinetics of all six proteins were determined using the antibiotics:imipenem (Δε295 = −11,500 M^−1 cm^−1), meropenem (Δε297 = −10,940 M^−1 cm^−1), and cefotaxime (Δε264 = −27,250 M^−1 cm^−1). In this study, the D63, D2148, and D2573 inhibitors were tested. Hydrolysis of β-lactam antibiotics was detected by monitoring the variation in absorbance due to cleavage of the β-lactam ring in 50 mM, pH 7.0, phosphate buffer ([40], [41]). For hydrolysis of substrate (cefotaxime, imipenem, and meropenem) kinetics parameters, Km and kcat were calculated by using Michaelis Menten equations (equations 2 and 3). (2) V =Vmax [S]/Km + [S] (3) kcat = Vmax/E where E and S are the enzyme and substrate concentration, Km is the Michaelis-Mentent constant, kcat is the turnover number, and V and Vmax are the initial and maximum velocity of the hydrolysis, respectively.

[8] = target: T2, SHV-1; experiment: as above; settings: inhibitor concentration as per IC50
Protocol: as §4, §5

[9] = target: T3, KPC-2; experiment: as above; settings: inhibitor concentration as per IC50
Protocol: as §4, §5

[10] = target: T4, CTX-M-15; experiment: as above; settings: inhibitor concentration as per IC50
Protocol: as §4, §5

[11] = target: T5, TEM-1; experiment: as above; settings: inhibitor concentration as per IC50
Protocol: as §4, §5

[12] = target: T6, NDM-1; experiment: as above; settings: inhibitor concentration as per IC50
Protocol: as §4, §5

T1 sequence (P00811 20-377): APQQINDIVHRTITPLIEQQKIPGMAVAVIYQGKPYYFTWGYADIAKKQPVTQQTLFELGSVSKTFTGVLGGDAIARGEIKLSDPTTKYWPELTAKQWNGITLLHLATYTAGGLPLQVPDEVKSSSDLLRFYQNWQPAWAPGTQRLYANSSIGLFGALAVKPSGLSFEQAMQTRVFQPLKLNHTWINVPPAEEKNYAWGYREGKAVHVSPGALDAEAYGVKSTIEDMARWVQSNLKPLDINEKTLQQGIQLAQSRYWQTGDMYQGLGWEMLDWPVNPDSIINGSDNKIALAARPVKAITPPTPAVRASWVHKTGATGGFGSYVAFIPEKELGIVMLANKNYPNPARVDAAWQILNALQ

O=C(CN1C(=O)c2ccccc2S1(=O)=O)c1ccc(O)c(O)c1 [D63, 2-[2-(3,4-dihydroxyphenyl)-2-oxoethyl]-1H-1,2-benzisothiazole-1,1,3(2H)-trione]
IC50 [1]: 609 pM | IC50 [2]: 649 pM | IC50 [3]: 695 pM | IC50 [4]: 779 pM | IC50 [5]: 726 pM | IC50 [6]: 733 pM | Km or Ki ([7]; cefotaxime): 1,522 μΜ | kcat ([7]; cefotaxime): 1.537 S^−1 | Km or Ki ([7]; imipenem): 499.22 μΜ | kcat ([7]; imipenem): 1.158 S^−1 | Km or Ki ([7]; meropenem): 553.8 μΜ | kcat ([7]; meropenem): 1.093 S^−1 | Km or Ki ([8]; cefotaxime): 1,375 μΜ | kcat ([8]; cefotaxime): 1.621 S^−1 | Km or Ki ([8]; imipenem): 851 μΜ | kcat ([8]; imipenem): 1.525 S^−1 | Km or Ki ([8]; meropenem): 2,881 μΜ | kcat ([8]; meropenem): 1.928 S^−1 | Km or Ki ([9]; cefotaxime): 713 μΜ | kcat ([9]; cefotaxime): 0.384 S^−1 | Km or Ki ([9]; imipenem): 489.1 μΜ | kcat ([9]; imipenem): 0.39 S^−1 | Km or Ki ([9]; meropenem): 511.7 μΜ | kcat ([9]; meropenem): 0.45 S^−1 | Km or Ki ([10]; cefotaxime): 742.7 μΜ | kcat ([10]; cefotaxime): 0.7320 S^−1 | Km or Ki ([10]; imipenem): 480.5 μΜ | kcat ([10]; imipenem): 5.572 S^−1 | Km or Ki ([10]; meropenem): 228.4 μΜ | kcat ([10]; meropenem): 1.723 S^−1 | Km or Ki ([11]; cefotaxime): 1,353 μΜ | kcat ([11]; cefotaxime): 1.051 S^−1 | Km or Ki ([11]; imipenem): 673.1 μΜ | kcat ([11]; imipenem): 1.194 S^−1 | Km or Ki ([11]; meropenem): 253.5 μΜ | kcat ([11]; meropenem): 0.6169 S^−1 | Km or Ki ([12]; cefotaxime): 410.8 μΜ | kcat ([12]; cefotaxime): 1.833 S^−1 | Km or Ki ([12]; imipenem): 258.7 μΜ | kcat ([12]; imipenem): 18.29 S^−1 | Km or Ki ([12]; meropenem): 1,052 μΜ | kcat ([12]; meropenem): 9.282 S^−1

O=C(c1ccccc1)C1CCN(C(=O)CN2C(=O)c3ccccc3C2=O)CC1 [D2148, 2-[2-(4-benzoylpiperidino) -2-oxoethyl]-1H-isoindole-1,3(2H)-dione]
IC50 [1]: 714 pM | IC50 [2]: 587 pM | IC50 [3]: 744 pM | IC50 [4]: 638 pM | IC50 [5]: 449 pM | IC50 [6]: 632 pM | Km or Ki ([7]; cefotaxime): 796.6 μΜ | kcat ([7]; cefotaxime): 3.401 S^−1 | Km or Ki ([7]; imipenem): 1,136 μΜ | kcat ([7]; imipenem): 2.631 S^−1 | Km or Ki ([7]; meropenem): 794 μΜ | kcat ([7]; meropenem): 2.637 S^−1 | Km or Ki ([8]; cefotaxime): 626.2 μΜ | kcat ([8]; cefotaxime): 6.751 S^−1 | Km or Ki ([8]; imipenem): 618.4 μΜ | kcat ([8]; imipenem): 5.535 S^−1 | Km or Ki ([8]; meropenem): 1,376 μΜ | kcat ([8]; meropenem): 6.436 S^−1 | Km or Ki ([9]; cefotaxime): 358.7 μΜ | kcat ([9]; cefotaxime): 3.293 S^−1 | Km or Ki ([9]; imipenem): 301.8 μΜ | kcat ([9]; imipenem): 3.44 S^−1 | Km or Ki ([9]; meropenem): 491 μΜ | kcat ([9]; meropenem): 2.47 S^−1 | Km or Ki ([10]; cefotaxime): 670.6 μΜ | kcat ([10]; cefotaxime): 838.6 S^−1 | Km or Ki ([10]; imipenem): 675.9 μΜ | kcat ([10]; imipenem): 2,720 S^−1 | Km or Ki ([10]; meropenem): 9,333 μΜ | kcat ([10]; meropenem): 17,974 S^−1 | Km or Ki ([11]; cefotaxime): 757.7 μΜ | kcat ([11]; cefotaxime): 6.332 S^−1 | Km or Ki ([11]; imipenem): 689.7 μΜ | kcat ([11]; imipenem): 0.9853 S^−1 | Km or Ki ([11]; meropenem): 7,537 μΜ | kcat ([11]; meropenem): 43.13 S^−1 | Km or Ki ([12]; cefotaxime): 1,939 μΜ | kcat ([12]; cefotaxime): 15.88 S^−1 | Km or Ki ([12]; imipenem): 995.4 μΜ | kcat ([12]; imipenem): 20.6 S^−1 | Km or Ki ([12]; meropenem): 986.4 μΜ | kcat ([12]; meropenem): 9.201 S^−1

O=C(O)c1ccccc1C(=O)N1CCN(c2nc(-c3ccccc3)ns2)CC1 [D2573, 2-{[4-(3-phenyl-1,2,4-thiadiazol-5-yl)piperazino]carbonyl}benzoic acid]
IC50 [1]: 655 pM | IC50 [2]: 655 pM | IC50 [3]: 667 pM | IC50 [4]: 731 pM | IC50 [5]: 634 pM | IC50 [6]: 624 pM | Km or Ki ([7]; cefotaxime): 1,522 μΜ | kcat ([7]; cefotaxime): 1.5 S^−1 | Km or Ki ([7]; imipenem): 499 μΜ | kcat ([7]; imipenem): 1.158 S^−1 | Km or Ki ([7]; meropenem): 553 μΜ | kcat ([7]; meropenem): 1.09 S^−1 | Km or Ki ([8]; cefotaxime): 608 μΜ | kcat ([8]; cefotaxime): 0.8431 S^−1 | Km or Ki ([8]; imipenem): 1,138 μΜ | kcat ([8]; imipenem): 0.958 S^−1 | Km or Ki ([8]; meropenem): 979 μΜ | kcat ([8]; meropenem): 1.232 S^−1 | Km or Ki ([9]; cefotaxime): 549.1 μΜ | kcat ([9]; cefotaxime): 0.454 S^−1 | Km or Ki ([9]; imipenem): 878.8 μΜ | kcat ([9]; imipenem): 0.419 S^−1 | Km or Ki ([9]; meropenem): 2,786 μΜ | kcat ([9]; meropenem): 1.02 S^−1 | Km or Ki ([10]; cefotaxime): 330.1 μΜ | kcat ([10]; cefotaxime): 0.9055 S^−1 | kcat ([10]; imipenem): 1.454 S^−1 | Km or Ki ([10]; meropenem): 469.8 μΜ | kcat ([10]; meropenem): 0.9091 S^−1 | Km or Ki ([11]; cefotaxime): 905.2 μΜ | kcat ([11]; cefotaxime): 1.056 S^−1 | Km or Ki ([11]; imipenem): 2,665 μΜ | kcat ([11]; imipenem): 1.454 S^−1 | Km or Ki ([11]; meropenem): 2,129 μΜ | kcat ([11]; meropenem): 1.563 S^−1 | Km or Ki ([12]; cefotaxime): 8,756 μΜ | kcat ([12]; cefotaxime): 4.921 S^−1 | Km or Ki ([12]; imipenem): 301.3 μΜ | kcat ([12]; imipenem): 3.875 S^−1 | Km or Ki ([12]; meropenem): 756.8 μΜ | kcat ([12]; meropenem): 14.59 S^−1
